The source of these data is US11918597B2, “Triple combination therapies for anti-aging” (LUNELLA BIOTECH, INC., priority 2018, dated 2024).

The subject of one series is rat heart. To be noted: conditions of hypoxia, Vitamin C alone; cited from earlier work.
The subject of series [1] is MCF7 cells. The experiment in a line: Metabolic flux analysis (Seahorse XFe96, OCR and ECAR). To be noted: MCF7 monolayers pre-treated 3-days, doxycycline 1 μM, azithromycin 1 μM, Vitamin C 250 μM as applicable. It counts as cell-based, human.
Protocol: Metabolic Flux Analysis: Real-time oxygen consumption rates (OCR) and extracellular acidification rates (ECAR) rates in MCF7 cells were determined using the Seahorse Extracellular Flux (XFe96) analyzer (Seahorse Bioscience, USA). Briefly, 1.5×10^4 cells per well were seeded into XFe96 well cell culture plates, and incubated overnight to allow cell attachment. Then, cells were treated with antibiotics for 72 h. Vehicle-alone control cells were processed in parallel. After 72 hours of incubation, cells were washed in pre-warmed XF assay media (or for OCR measurement, XF assay media supplemented with 10 mM glucose, 1 mM Pyruvate, 2 mM L-glutamine and adjusted at 7.4 pH). Cells were then maintained in 175 μL/well of XF assay media at 37° C., in a non-CO2 incubator for 1 hour. During the incubation time, we loaded 25 μL of 80 mM glucose, 9 μM oligomycin, and 1M 2-deoxyglucose (for ECAR measurement) or 10 μM oligomycin, 9 μM FCCP, 10 μM rotenone, 10 μM antimycin A (for OCR measurement), in XF assay media into the injection ports in the XFe96 sensor cartridge. Measurements were normalized by protein content (Bradford assay). Data sets were analyzed using XFe96 software and GraphPad Prism software, using one-way ANOVA and Student's t-test calculations. All experiments were performed in quintuplicate, three times independently.
The conditions of series [2]: oral administration; cited from earlier work.
The next series relates to U937 cells. To be noted: 15 minutes, media containing 3 μM Vitamin C; cited from earlier work.
Series [3] relates to MCF7 cells. The experiment in a line: Mammosphere formation assay (CSC propagation). Type of series: cell-based, human. To be noted: for inhibition at 250 µM: suspension treatment 5-days, doxycycline 1 μM, azithromycin 1 μM, Vitamin C 250 μM, read-out: MFE (% Inhibition ± SD); for IC50: MCF7 cells (FIG. 15), read-out: half maximal inhibitory concentration (IC50), mammosphere assay. How it is done: The following paragraphs discuss laboratory data and analysis for select embodiments of the present approach. Doxycycline and azithromycin were tested alone and in combination at low concentrations to evaluate the resulting inhibitory effect on mammosphere formation. FIGS. 1A-1C summarize mammosphere formation data for varying concentrations and combinations.
The temporal effects of pre-treatment on the efficacy of the present approach have been evaluated in the pre-clinical setting, using CSC propagation as the measurement. […] This may be due to MCF7 cells' ability to induce oxidative stress, driving an anti-oxidant response. Given these […] results, it appears embodiments of the present approach that simultaneously co-administer all three therapeutic agents appear to have the most significant impact on the CSC population, and are preferred. […] However, some embodiments may call for administering therapeutic agents within a narrow window, such as 1-3 hours, over multiple days (e.g., 3-7 days in some embodiments, 4-14 days in some embodiments). The antibiotics may be administered in oral form (e.g., pill or tablet), while the Vitamin C is administered intravenously in some embodiments. In others, all three therapeutic agents may be administered orally, either as separate pills or tabs, or as a single concoction containing each therapeutic agent.
Mammosphere Formation Assay: A single cell suspension was prepared using enzymatic (lx Trypsin-EDTA, Sigma Aldrich, #T3924), and manual disaggregation (25 gauge needle). Cells were plated at a density of 500 cells/cm2 in mammosphere medium (DMEM-F12+B27+20 ng/ml EGF+PenStrep) under non-adherent conditions, in culture dishes pre-coated with (2-hydroxyethylmethacrylate) (poly-HEMA, Sigma, #P3932), called “tumor-sphere plates”. Vehicle alone (DMSO) control cells were processed in parallel. Cells were grown for 5 days and maintained in a humidified incubator at 37° C. After 5 days of culture, 3D mammospheres >50 μm were counted using an eye piece (“graticule”), and the percentage of cells plated which formed spheres was calculated and is referred to as percent mammosphere formation (MFE, and was normalized to one (1=100% MSF).

The test system of the next series is senescent fibroblasts. The experiment in a line: Senolytic activity on senescent fibroblasts. It counts as cell-based. To be noted: azithromycin by itself. From the text: Embodiments of the present approach also have implications for improving health-span and life-span. Azithromycin, by itself, is an FDA-approved drug with remarkable senolytic activity that targets and removes senescent fibroblasts, such as myo-fibrobasts. This senolytic activity has considerable efficiency, approaching nearly 97%. The accumulation of pro-inflammatory senescent cells is thought to be the primary cause of many aging-associated diseases, such as heart disease, diabetes, dementia and cancer, for example. Since cancer-associated fibroblasts (CAFs) are senescent myo-fibroblasts, with tumor promoting activity, triple combination embodiments of the present approach with Azithromycin may also effectively target the glycolytic tumor stroma of aggressive and metastatic cancers, especially those bearing the metabolic hallmarks of the “Reverse Warburg Effect.” In some embodiments, the composition prevents acquisition of a senescence-associated secretory phenotype. In some embodiments, the composition facilitates tissue repair and regeneration. In some embodiments, the composition increases at least one of organismal life-span and health-span.

The next series has as its system CSCs. The experiment in a line: CSC propagation / CSC inhibition activity (cell line not stated). It counts as cell-based.
Another series deals with senescent MRC-5 cells. The experiment in a line: BrdU-induced senescence senolytic assay (SRB / xCELLigence). Type of series: cell-based, human. To be noted: BrdU-treated MRC-5 fibroblasts; even at concentrations as low as 25 μM. The protocol: (§1) Bromodeoxyuridine (5-bromo-2′-deoxyuridine), also known as BrdU, was used to induce senescence. BrdU is an analog of the nucleoside thymidine commonly used to identify proliferating cells. BrdU induces controlled DNA damage, and drives cells towards senescence with high efficiency. The BrdU assay of the present approach calls for subjecting normal fibroblasts to prolonged culture (8-days) in the presence of BrdU at 100 μM to induce controlled DNA-damage and senescence. […] Then, isogenically-matched cultures of normal and senescent fibroblasts may be used for drug screening to identify drugs having senolytic activity. Senolytic activity may be detected using the sulforhodamine B assay, also known in the art as the SRB assay. This assay measures the amount of protein remaining attached to the tissue-culture dishes, and is a surrogate marker for cell viability. This approach may be used to rapidly screen compounds, including clinically-approved drugs, such as, for example, antibiotics. For example, in embodiments described herein, the present approach was used to screen erythromycin family members, including azithromycin and roxithromycin, among other compounds and conjugates. It should be appreciated that the present approach may be used to screen other compounds.

A further series concerns bulk MCF7 cells. The experiment in a line: Cell viability, bulk MCF7 cells. To be noted: range of concentrations, up to 20 μM. Type of series: cell-based, human. From the text: Embodiments of therapeutic agents conjugated with targeting signals have shown less toxicity in bulk cancer cells and normal fibroblasts compared to unconjugated therapeutic agents. For example, FIGS. 17A and 17B show cell viability data for doxycycline and the doxycycline-myristate conjugate shown as compound [1], for bulk MCF7 cells and bulk BJ cells, respectively. The data represents cell viability expressed as a percentage of a control. […] Similar behavior has been seen in other therapeutic agents conjugated with targeting signals.

The test system of another series is bulk BJ cells. The experiment in a line: Cell viability, bulk BJ cells. It counts as cell-based, human. To be noted: bulk BJ cells (normal fibroblasts); range of concentrations, up to 20 μM. The protocol:
as §1, with “For example, in embodiments described herein, the present approach was used to screen erythromycin family members, including azithromycin and roxithromycin, among other compounds and conjugates. It should be appreciated that the present approach may be used to screen other compounds.” left out
Embodiments of therapeutic agents conjugated with targeting signals have shown less toxicity in bulk cancer cells and normal fibroblasts compared to unconjugated therapeutic agents. […] The data represents cell viability expressed as a percentage of a control. […]

Like-named read-outs stand apart in the source and are kept apart here.

For `O=C1O[C@H]([C@@H](O)CO)C(O)=C1O` [Vitamin C, Ascorbic Acid], the “increase of mitochondrial ATP production” value with rat heart is given as “up to 1.5 fold”. Further, in the series with MCF7 cells [1], the “ATP production / ATP levels” value is “significantly increased”; the “basal and maximal respiration” value was “significantly increased”; the “glycolysis / glycolytic function (ECAR)” value is listed as “significantly increased”; the glycolytic reserve result is given as “significantly increased”. For the same compound, in the series on MCF7 cells [1], the glycolytic reserve capacity result is “decreasing” and the “oxidative mitochondrial metabolism (OCR, mitochondrial oxygen consumption)” value is recorded as “significantly increased”. In the series with MCF7 cells [1] (listed as low-dose Vitamin C), the “ATP production / ATP levels” value is reported as “increased”; the “basal and maximal respiration” value is given as “increased”; the “glycolysis / glycolytic function (ECAR)” value was “increased”; the “oxidative mitochondrial metabolism (OCR, mitochondrial oxygen consumption)” value is recorded as “increases”. Moreover, the “peak Vitamin C concentration in blood/serum/plasma” value in [2] is on record as “about 250 μM”. Moreover, the “Vitamin C level reached in the mitochondria” value with U937 cells is given as 5 mM. Besides, the inhibition at 250 µM in the series with MCF7 cells [3] (Homo sapiens, MCF7, Monolayer pre-treatment D + A 7-days) is 39.1%. Moreover, the inhibition at 250 µM in the series on MCF7 cells [3] (Homo sapiens, MCF7, Monolayer pre-treatment Vit C 7-days) turned out to be 49.2%.

Regarding `C[C@H]1c2cccc(O)c2C(=O)C2=C(O)[C@]3(O)C(=O)C(C(N)=O)=C(O)[C@@H](N(C)C)[C@@H]3[C@@H](O)[C@@H]21` [doxycycline], the IC50 with MCF7 cells [3] (Homo sapiens) amounted to 18.1 µM.

Regarding `CC[C@H]1OC(=O)[C@H](C)[C@@H](O[C@H]2C[C@@](C)(OC)[C@@H](O)[C@H](C)O2)[C@H](C)[C@@H](O[C@@H]2O[C@H](C)C[C@H](N(C)C)[C@H]2O)[C@](C)(O)C[C@@H](C)CN(C)[C@H](C)[C@@H](O)[C@]1(C)O` [azithromycin], the “senolytic activity, efficiency of removing senescent fibroblasts” value in the series on senescent fibroblasts was roughly 97%. In the series with MCF7 cells [3] (alone at low concentrations (0.1 μM and 1 μM)), the “inhibition of mammosphere formation” value is listed as “little or no effect”.

For `CCCCCCCCCCCCCC(=O)N(C)[C@H]1C[C@@H](C)O[C@@H](O[C@@H]2[C@@H](C)[C@H](O[C@H]3C[C@@](C)(OC)[C@@H](O)[C@H](C)O3)[C@@H](C)C(=O)O[C@H](CC)[C@@](C)(O)[C@H](O)[C@@H](C)N(C)C[C@H](C)C[C@@]2(C)O)[C@@H]1O` [Compound [15]], in the series on CSCs, the “potency for CSCs compared to azithromycin alone” value was “improved” and the “selectivity for CSCs compared to azithromycin alone” value is on record as “improved”.

As to `CCCCCCCCCCCCCC(=O)N(C)[C@H]1C[C@@H](C)O[C@@H](O[C@@H]2[C@@H](C)[C@H](O[C@@H]3C[C@@](C)(OC)[C@@H](O)[C@H](C)O3)[C@@H](C)C(=O)O[C@H](CC)[C@@](C)(O)[C@H](O)[C@@H](C)N(C)C[C@H](C)C[C@@]2(C)O)[C@@H]1O` [azithromycin—fatty acid conjugate, N-[(2S,3R,4S,6R)-2-[ [(2R,3S,4R,5R,8R,10R,11R,12S,13S,14R)-2-ethyl-3,4,10-trihydroxy-13-[(2S,4R,5S,6S)-5-hydroxy-4-methoxy-4,6-dimethyl-tetrahydropyran-2-yl]oxy-3,5,6,8,10,12,14-heptamethyl-15-oxo-1-oxa-6-azacyclopentadec-11-yl]oxy]-3-hydroxy-6-methyl-tetrahydropyran-4-yl]-N-methyl-tetradecanamide], in the series on senescent MRC-5 cells, the “senescent MRC-5 cells targeted (final cell index after 5 days, xCELLigence)” value was roughly 100%.

As to `CCCCCCCCCCCCCC(=O)Nc1ccc2c(c1O)C(=O)C1=C(O)[C@]3(O)C(=O)C(C(N)=O)=C(O)[C@@H](N(C)C)C3[C@@H](O)C1[C@H]2C` (stereo partly drawn) [doxycycline-myristate conjugate, (4S,5S,6R,12aS)-4-(dimethylamino)-3,5,10,12,12a-pentahydroxy-6-methyl-1,11-dioxo-9-(tetradecanoylamino)-4a,5,5a,6-tetrahydro-4H-tetracene-2-carboxamide], the “toxicity (cell viability as percentage of control)” value with bulk MCF7 cells and with bulk BJ cells was “less toxic than doxycycline” in each case. In addition, the “CSC inhibition activity compared with the unconjugated antibiotic” value in the series on CSCs (fatty acid moiety is myristate (n is 12)) is recorded as “better CSC inhibitory properties”. Moreover, in the series with MCF7 cells [3] (Homo sapiens, MCF7, 2.5 μM, read-out: inhibition of MCF7 mammosphere formation relative to the control), the inhibition at 2.5 µM fell in the range of 40 to 60%. For the same compound, the IC50 with MCF7 cells [3] (Homo sapiens) turned out to be 3.46 µM. In the series on MCF7 cells [3] (MCF7, 1.5 μM, 3 μM, 6 μM, 12 μM), the “potency in mammosphere assay compared with doxycycline (FIG. 14)” value is given as “more potent than unconjugated doxycycline”.

As a reminder, the inhibition is how much of the control response was suppressed.
